Values of other authors, collected in patent publication US5212175A, “Benzothiophenyl benzothiophenylalkyl-N-terminal amino hydroxy β-amino acid derivatives” (G. D. Searle & Co., priority 1991, dated 1993).
Square brackets hold non-standard residues; d marks the D form. Peptide text beside a SMILES is read from it. * marks the point of attachment. Sta = CC(C)C[C@H](N)[C@@H](O)CC(=O)O; Isovaleryl = CC(C)CC(=O)*

Experiments:
pepsin = details: Umezawa et al, J. Antibiot. 1970
renin = details: Umezawa et al, J. Antibiot. 1970
hog renin = details: after the injection of hog renin into nephrectomized rats; Gross et al, Science 1971
cathepsin D = details: Umezawa et al, J. Antibiot. 1970
[1] = stated in words as a disadvantage

## CC(C)CC(=O)N[C@H](C(=O)N[C@H](C(=O)N[C@@H](CC(C)C)[C@@H](O)CC(=O)N[C@@H](C)C(=O)N[C@@H](CC(C)C)[C@@H](O)CC(=O)O)C(C)C)C(C)C [pepstatin] (Isovaleryl-VV[Sta]A[Sta]-OH)
pepsin
  inhibitor of pepsin: inhibitor
renin
  inhibitor of renin: inhibitor
Hog renin
  reduce blood pressure in vivo: reduce blood pressure
Cathepsin D
  inhibitor of cathepsin D: inhibitor
[1]
  solubility: low solubility
